Like-named read-outs stand apart in the source and are kept apart here.
Legend:
Type in all cases: in vivo
Avena fatua (AVEFA) [1] = experiment: Post-emergence herbicidal action against AVEFA; conditions: 320 g/ha, visual rating about 3 weeks after treatment
Outline: (§1)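 Doses of 320 g/ha or lower, suffixes a, b and c marking different dosages, were applied post-emergence at the one-leaf stage in 600 l/ha water with 0.5% additive. Damage was assessed visually after about 3 weeks in the greenhouse.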

[2] = test system: Amaranthus retroflexus (AMARE); experiment: Pre-emergence herbicidal action against AMARE; conditions: visual scoring after about 3 weeks vs untreated controls
Outline: (§2)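 Read-out is visual percent damage relative to untreated pots, with 100% meaning dead plants and 0% meaning no difference, assessed roughly three weeks after treatment. Compounds were applied pre-emergence to the covering soil at up to 320 g/ha.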

Oryza sativa (ORYSA) [3] = conditions: crop plant compatibility
Outline: (§3)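 Effects were read visually as % versus untreated controls (0% = no effect, 100% = death) about 3 weeks post-treatment. Application was a post-emergence spray at the one-leaf stage of WP/EC formulations with 0.5% additive at 600 l/ha. Different dosages are denoted a, b and c.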

Oryza sativa (ORYSA) [4] = conditions: pre-emergence, 80 g/ha, crop plant compatibility, in comparison to untreated controls
Outline: (§4)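 Scoring: visual, % of untreated control, about 3 weeks after a pre-emergence application to the soil surface. Application used WP or EC formulations diluted in water with 0.5% additive at 600 l/ha; dosage levels are marked by suffixes a, b and c.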

Glycine max (GLXMA) = conditions: pre-emergence, 80 g/ha, crop plant compatibility, in comparison to untreated controls
Outline: as §4

Zea mays (ZEAMX) [5] = conditions: pre-emergence, 80 g/ha, crop plant compatibility, in comparison to untreated controls
Outline: as §4

[6] = test system: Triticum aestivum (TRZAS); conditions: pre-emergence, 80 g/ha, crop plant compatibility, in comparison to untreated controls
Outline: as §4

[7] = test system: Amaranthus retroflexus (AMARE); experiment: Post-emergence herbicidal action against AMARE
Outline: as §1

Setaria viridis (SETVI) [8] = experiment: Pre-emergence herbicidal action against SETVI; conditions: dosage 320 g/ha
Outline: as §2

[9] = test system: Abutilon theophrasti (ABUTH); experiment: Pre-emergence herbicidal action against ABUTH; conditions: Dosage column 320 g/ha (title prints 3200 g/ha); scored visually after about 3 weeks; 100% = plants have died
Outline: as §2

Viola tricolor (VIOTR) [10] = experiment: Pre-emergence herbicidal action against VIOTR
Outline: as §2

[11] = test system: Polygonum convolvulus (POLCO); experiment: Post-emergence herbicidal action against POLCO
Outline: as §1

[12] = test system: Echinochloa crus-galli (ECHCG); experiment: Post-emergence herbicidal action against ECHCG
Outline: as §1

Lolium rigidum (LOLRI) [13] = experiment: Pre-emergence herbicidal action against LOLRI; conditions: dosage 320 g/ha
Outline: as §2

Viola tricolor (VIOTR) [14] = experiment: Post-emergence herbicidal action against VIOTR
Outline: as §1

[15] = test system: Digitaria sanguinalis (DIGSA); experiment: Post-emergence herbicidal action against DIGSA; conditions: 320 g/ha, visual rating about 3 weeks after treatment
Outline: as §1

Zea mays (ZEAMX) [16] = conditions: crop plant compatibility, 80 g/ha, effect vs untreated controls
Outline: as §3

Brassica napus (BRSNW) = conditions: 80 g/ha, crop plant compatibility, in comparison to untreated controls
Outline: as §4

[17] = test system: Pharbitis purpurea (PHBPU); experiment: Post-emergence herbicidal action against PHBPU
Outline: as §1

[18] = test system: Polygonum convolvulus (POLCO); experiment: Pre-emergence herbicidal action against POLCO
Outline: as §2

[19] = test system: Alopecurus myosuroides (ALOMY); experiment: Pre-emergence herbicidal action against ALOMY; conditions: 320 g/ha; scored visually after about 3 weeks; 100% = plants have died
Outline: as §2

[20] = test system: Digitaria sanguinalis (DIGSA); experiment: Pre-emergence herbicidal action against DIGSA; conditions: dosage 320 g/ha
Outline: as §2

[21] = test system: Alopecurus myosuroides (ALOMY); experiment: Post-emergence herbicidal action against ALOMY; conditions: 320 g/ha, visual rating about 3 weeks after treatment vs untreated controls (100% = plants have died, 0% = like control plants)
Outline: as §1

Lolium rigidum (LOLRI) [22] = experiment: Post-emergence herbicidal action against LOLRI; conditions: dosage 320 g/ha
Outline: as §1

[23] = test system: Abutilon theophrasti (ABUTH); experiment: Post-emergence herbicidal action against ABUTH; conditions: visual rating about 3 weeks after treatment vs untreated controls (100% = plants have died, 0% = like control plants)
Outline: as §1

Setaria viridis (SETVI) [24] = experiment: Post-emergence herbicidal action against SETVI
Outline: as §1

[25] = test system: Matricaria inodora (MATIN); experiment: Post-emergence herbicidal action against MATIN
Outline: as §1

[26] = test system: Echinochloa crus-galli (ECHCG); experiment: Pre-emergence herbicidal action against ECHCG; conditions: dosage 320 g/ha
Outline: as §2

Avena fatua (AVEFA) [27] = experiment: Pre-emergence herbicidal action against AVEFA; conditions: 320 g/ha, visual scoring after about 3 weeks vs untreated controls
Outline: as §2

[28] = test system: Matricaria inodora (MATIN); experiment: Pre-emergence herbicidal action against MATIN
Outline: as §2

[29] = test system: Verconica persica (VERPE); experiment: Post-emergence herbicidal action against VERPE; conditions: 320 g/ha, VERPE
Outline: as §1

[30] = test system: Verconica persica (VERPE); experiment: Pre-emergence herbicidal action against VERPE; conditions: dosage 320 g/ha
Outline: as §2

[31] = 80 g/ha, effect in comparison to untreated controls
[32] = 320 g/ha, effect in comparison to untreated controls
[33] = 80 g/ha, visual rating about 3 weeks after treatment vs untreated controls (100% = plants have died, 0% = like control plants)
[34] = 320 g/ha, visual rating about 3 weeks after treatment

Post-emergence action against ORYSA in % (Oryza sativa (ORYSA) [3]; [31])	Post-emergence action against ORYSA in % (Oryza sativa (ORYSA) [3]; [32])	Pre-emergence action against ORYSA in % (Oryza sativa (ORYSA) [4])	Pre-emergence action against GLXMA in % (Glycine max (GLXMA))	Pre-emergence action against ZEAMX in % (Zea mays (ZEAMX) [5])	Pre-emergence action against TRZAS in % [6]	Pre-emergence action against BRSNW in % (Brassica napus (BRSNW))	SMILES	Post-emergence action against AVEFA in % (Avena fatua (AVEFA) [1])	Pre-emergence action against AMARE in % ([2]; 320 g/ha)	Post-emergence action against AMARE in % [7, 33]	Post-emergence action against AMARE in % [7, 34]	Pre-emergence action against SETVI in % (Setaria viridis (SETVI) [8])	Pre-emergence action against ABUTH [9]	Pre-emergence action against VIOTR in % (Viola tricolor (VIOTR) [10]; 320 g/ha, Viola tricolor)	Post-emergence action against POLCO in % ([11]; dosage 320 g/ha)	Post-emergence action against ECHCG in % ([12]; dosage 320 g/ha)	Pre-emergence action against LOLRI in % (Lolium rigidum (LOLRI) [13])	Post-emergence action against VIOTR in % (Viola tricolor (VIOTR) [14]; 80 g/ha)	Post-emergence action against VIOTR in % (Viola tricolor (VIOTR) [14]; 320 g/ha)	Pre-emergence action against ALOMY [19]	also measured
0%	0%	0%	20%	0%	0%		O=C(COc1nn(-c2ccccn2)c(-c2ccc(F)nc2)c1Br)NS(=O)(=O)CC(F)(F)F [Example I-60]	90%	90%	80%	80%	80%	80%	80%	80%	80%	80%				
0%	0%		0%	0%		20%	COC(=O)[C@@H](C)Oc1nn(-c2ccccn2)c(-c2ccc(Cl)nc2)c1Br [Example I-242]	80%	100%		80%			100%	80%		90%	80%	80%	80%	Post-emergence action against DIGSA in % [15]: 80%; Post-emergence action against ZEAMX in % (Zea mays (ZEAMX) [16]): 10%; Post-emergence action against PHBPU in % ([17]; dosage 80 g/ha): 80%; Post-emergence action against PHBPU in % ([17]; dosage 320 g/ha): 80%; Pre-emergence action against POLCO in % ([18]; dosage 320 g/ha): 80%; Pre-emergence action against DIGSA in % [20]: 90%; Post-emergence action against POLCO in % ([11]; dosage 80 g/ha): 80%; Post-emergence action against ALOMY in % [21]: 80%; Post-emergence action against LOLRI in % (Lolium rigidum (LOLRI) [22]): 80%
			0%		0%		CCOC(=O)CSc1nn(-c2ccccn2)c(-c2cncc(F)c2)c1Cl [Example I-183]	90%	100%	90%	90%	90%	80%	100%	90%	90%	90%	90%	90%	80%	Post-emergence action against ABUTH in % ([23]; 80 g/ha): 80%; Post-emergence action against ABUTH in % ([23]; 320 g/ha): 80%; Pre-emergence action against AMARE in % ([2]; 80 g/ha): 80%; Post-emergence action against PHBPU in % ([17]; dosage 80 g/ha): 80%; Post-emergence action against PHBPU in % ([17]; dosage 320 g/ha): 90%; Post-emergence action against SETVI in % (Setaria viridis (SETVI) [24]; dosage 80 g/ha): 90%; Post-emergence action against SETVI in % (Setaria viridis (SETVI) [24]; dosage 320 g/ha): 90%; Pre-emergence action against POLCO in % ([18]; dosage 80 g/ha): 80%; Pre-emergence action against POLCO in % ([18]; dosage 320 g/ha): 90%; Post-emergence action against MATIN in % ([25]; dosage 80 g/ha): 80%; Post-emergence action against MATIN in % ([25]; dosage 320 g/ha): 80%; Pre-emergence action against ECHCG in % [26]: 100%; Pre-emergence action against AVEFA in % (Avena fatua (AVEFA) [27]): 80%; Pre-emergence action against VIOTR in % (Viola tricolor (VIOTR) [10]; dosage 80 g/ha): 80%; Pre-emergence action against MATIN in % ([28]; dosage 80 g/ha): 90%; Pre-emergence action against MATIN in % ([28]; dosage 320 g/ha): 90%; Post-emergence action against ECHCG in % ([12]; dosage 80 g/ha): 90%; Post-emergence action against VERPE in % [29]: 90%; Post-emergence action against LOLRI in % (Lolium rigidum (LOLRI) [22]): 90%
0%		0%	0%	20%		0%	COC(=O)[C@@H](C)Oc1nn(-c2cccnc2F)c(-c2ccc(F)nc2)c1Br [II-36]		100%			80%		100%			80%	80%		100%	Post-emergence action against ORYSA in % (Oryza sativa (ORYSA) [3]; 20 g/ha, effect vs untreated controls): 0%; Pre-emergence action against DIGSA in % [20]: 100%; Pre-emergence action against AVEFA in % (Avena fatua (AVEFA) [27]): 80%; Pre-emergence action against VIOTR in % (Viola tricolor (VIOTR) [10]; dosage 80 g/ha): 80%; Pre-emergence action against VERPE in % [30]: 80%

Reference: US20240041042A1, “1-(PYRIDYL)-5-AZINYLPYRAZOLE DERIVATIVES, AND THEIR USE FOR CONTROL OF UNDESIRED PLANT GROWTH” (Bayer Aktiengesellschaft, priority 2020, published 2024)
